Results published in article PMC6017816, “Sesquiterpene Lactones from Vernonia cinerascens Sch. Bip. and Their in Vitro Antitrypanosomal Activity” (Molecules : A Journal of Synthetic Chemistry and Natural …, 2018).
Like-named read-outs stand apart in the source and are kept apart here.

Tests used:
[1] = tested on: Trypanosoma brucei rhodesiense (Tbr) (STIB 900 strain) trypomastigotes; set-up: method as in PMID 28397756; settings: isolated from V. lasiopus in previous study; read-out: in vitro antiTbr activity IC50; cited from earlier work
[2] = tested on: Trypanosoma brucei rhodesiense (Tbr) (STIB 900 strain) trypomastigotes; experiment: in vitro activity against Trypanosoma brucei rhodesiense bloodstream trypomastigotes; assay type: cell-based; settings: for IC50: Trypanosoma brucei, read-out: Tbr IC50; for SI (selectivity index): cytotoxicity L6 IC50 versus Tbr IC50
Protocol: (§1) The dichloromethane (CH2Cl2) extract obtained from leaves of V. cinerascens was tested for in vitro antiprotozoal activity against Trypanosoma brucei rhodesiense (Tbr) (STIB 900 strain) trypomastigotes, T. cruzi (Tcr) (Tulahuen C4 strain) amastigotes, Leishmania donovani (Ldon) (MHOM-ET-67/L82 strain) axenic amastigotes, and Plasmodium falciparum (Pf) (NF54 strain) intra-erythrocytic forms. It was also evaluated for in vitro cytotoxicity against mammalian cells, specifically the rat-skeletal myoblast cell line L6. […] Therefore, the CH2Cl2 extract was fractionated by silica gel column chromatography and representative fractions were subjected to bioactivity testing against Tbr (STIB 900 strain) trypomastigotes.
(§2) In vitro bioactivity tests were performed as previously described against Tbr (bloodstream trypomastigotes, STIB 900 strain), Tcr (amastigotes, Tulahuen C4 strain), Ldon (axenic amastigotes, MHOM-ET-67/L82 strain), and Pf (intraerythrocytic forms, NF54 strain), and the cytotoxicity test was conducted against mammalian cells (L6 cell line from rat-skeletal myoblasts) at the Swiss Tropical and Public Health Institute (Swiss TPH, Basel, Switzerland).

[3] = in vitro cytotoxicity against mammalian cells (L6); assay type: cell-based, rat
Protocol: as §1, §2

[4] = bloodstream trypomastigotes, STIB 900 strain, means of two independent determinations ± absolute deviation
[5] = L6 cell line from rat-skeletal myoblasts, means of two independent determinations ± absolute deviation, read-out: Cytotoxicity IC50

Molecule | IC50 [1] | IC50 [2, 4] | SI (selectivity index) [2] | IC50 ([3]; rat) | IC50 [3, 5] | IC50 [2]
vernodalol [Compound 1] | 0.26 µM | – | – | – | – | –
C=C(CO)C(=O)O[C@H]1C[C@@]2(CO)O[C@@H]2CC/C(C=O)=C/[C@H]2OC(=O)C(=C)[C@H]12 [Compound 8, vernocinerascolide] | – | 4.8 ± 1.1 µM | 27 | 128 ± 1 µM | – | –
C=C(C)C(=O)OC1CC23OC2CCC(=CC2OC(=O)C(C)C21)COC3O (stereo not drawn) [Compound 4, 11β,13-dihydrovernolide] | – | 17 µM | 0.8 | – | 13 ± 2 µM | –
C=C(CO)C(=O)OC1CC23OC2CCC(=CC2OC(=O)C(=C)C21)COC3O (stereo not drawn) [Compound 7, hydroxyvernolide] | – | 5 µM | 4.3 | 22 ± 1 µM | – | –
C=C[C@@]12COC(=O)C(=C)[C@@H]1[C@H]1OC(=O)C(=C)[C@@H]1[C@@H](OC(=O)C(=C)CO)C2 [Compound 2, vernodalin] | – | 0.16 ± 0.04 µM | 35 | 5.6 µM | – | –
COc1cc([C@@H]2c3cc4c(cc3[C@H](O)[C@H]3COC(=O)[C@H]23)OCO4)cc(OC)c1OC [podophyllotoxin, reference compound] | – | – | – | – | 0.007 ± 0.001 µM | –
C=C[C@@]12COC(=O)C(=C)[C@@H]1[C@H]1OC(=O)[C@@H](C)[C@@H]1[C@@H](OC(=O)C(=C)CO)C2 [Compound 3, 11β,13-dihydrovernodalin] | – | 1.1 ± 0.3 µM | 4.2 | 4.7 ± 0.4 µM | – | –
C=C(CO)C(=O)OC1CC23OC2CCC(=CC2OC(=O)C(C)C21)COC3O (stereo not drawn) [Compound 6, 11β,13-dihydrohydroxyvernolide] | – | 15 µM | 3.2 | 49 ± 1 µM | – | –
Nc1nc(N)nc(Nc2ccc([As]3SCC(CO)S3)cc2)n1 (stereo not drawn) [melarsoprol, reference compound] | – | – | – | – | – | 0.003 ± 0.001 µM
C=C(C)C(=O)OC1CC23OC2CCC(=CC2OC(=O)C(=C)C21)COC3O (stereo not drawn) [Compound 5, vernolide] | – | 0.5 ± 0.01 µM | 13 | – | 6.9 µM | –
